Experiment: Effects of different dissolution media on release rate of sustained-release pellet of topiramate
Assay type: physicochemical
Settings: 0.1 mol/L HCl (pH1.2), 37° C.
Protocol: In order to verify whether acidic, basic solvent media would influence the release rate of the sustained-release pellets of the present invention, 0.1 mol/L HCl (pH1.2) was prepared as artificial gastric fluid, […] phosphate buffer (pH6.8) was prepared as artificial intestinal fluid, and these media and water (500 ml) were used as release media, rotation speed was 100 rpm, 37° C. Samples (5 ml, supplemented with equivalent volume of media at the meantime) were taken at 1, 2, 4, 8, 12, 16, 20, 24 h, filtrated, and the subsequent filtrates were used as test solutions. High performance liquid chromatography (Appendix V D, Part II of Chinese Pharmacopoeia, 2010 Edition) was used, octylsilane-bonded silica gel was used as packing agent, 50% methanol was mobile phase, differential refractive detector was used, flow rate was 1.5 ml per minute. 200 μl of test solution was taken, injected in liquid chromatograph, the peak area of topiramate as main drug was recorded; topiramate was separately taken as control sample and measured by the same method, and accumulative release percentages of drug at different time points were calculated by external standard method. The release profile of sample of Batch 1 in Example 16 (2) in the above media were drawn, and the results were shown in FIG. 4.

- stability in pH1.2 artificial gastric fluid: unstable
Structure (SMILES): CC1(C)O[C@@H]2[C@@H](CO[C@@]3(COS(N)(=O)=O)OC(C)(C)O[C@@H]23)O1 [topiramate, 2,3,4,5-bis-O-(1-methylethylene)-β-D-fructopyranose sulfamate]
